Measurements taken from US8216783B2, “Over-expression and mutation of a tyrosine kinase receptor FGFR4 in tumors” (The United States of America, as represented by the …, priority 2008, dated 2012).
“Also recorded” adds a separate entry of the source. Like-named read-outs stand apart in the source and are kept apart here.

Tests used:
RH30 TRB H11.5 cells = experiment: In vitro growth of RH30 TRB H11.5 cells with or without dox; assay type: cell-based, human; conditions: RH30 TRB H11.5, 25 nM dox, 13 days, P=0.0021
Method: FIG. 13B is a plot of RH30 TRB H11.5 cell growth with or without 25 nM dox for 120 hours.
FIG. 13C is a plot of RH30TRB H11.5 cell number 13 days after treatment with or without 25 nM dox.
Human rhabdomyosarcoma cell line RH30 was retrovirally transduced with vectors containing tetracycline repressor protein and ecotropic receptor. A tetracycline inducible shRNA construct targeting FGFR4 ([…], SEQ ID NO: 44) was used to transduce these RH30 cells as described previously (Ngo et al. Nature 441:106-110, 2006). Transduced RH30 cells were then subcloned. The subclone with the highest FGFR4 knockdown in the presence of doxycycline (dox) was used for in vitro and in vivo studies. The subclone chosen was designated as RH30 TRB H11.5 and was further transduced with a retroviral vector encoding luciferase. RH30 TRB H11.5 cells treated with or without 25 ng/ml doxycycline for 48 hours were harvested for Western blot for FGFR4 expression.

[1] = tested on: RMS772 cells expressing FGFR4 N535K or V550E; experiment: Relative cell number of RMS772 transductants treated with imatinib; assay type: cell-based, mouse; conditions: 10 μM, 24 hours
Method: To determine the sensitivity of FGFR4 mutants (N535K and V550E) to imatinib, RMS772 transductants were treated with imatinib (ranging from 0 μM to 40 μM). After 24 hours, relative cell number (normalized with control) was plotted against imatinib dose.

[2] = tested on: RMS772 cells expressing FGFR4 V550E (E550); experiment: Percent cell survival of transduced RMS772 cell lines with PD173074; assay type: cell-based; conditions: Mus musculus; RMS772 E550, 48 hours of treatment
[3] = tested on: RMS772 cells expressing wild type FGFR4; experiment: as above; assay type: cell-based; conditions: Mus musculus; RMS772 wild type FGFR4, 48 hours of treatment
[4] = tested on: RMS772 cells expressing FGFR4 TK domain mutations N535K or V550E; experiment: Cell cycle assay (BrdU/7-AAD flow cytometry), apoptosis as subG1 fraction; assay type: cell-based, mouse; conditions: 5 uM for 24 hours
Method: (§1) The effect of […] in RMS119 and RMS772 transfectants was determined using cell cycle assays. […] Cells were then pulsed with BrdU for 40 minutes, and then fixed, permeabilized, and treated with DNase, and followed by staining with mAb (BD Biosciences, Franklin Lakes, N.J.) against BrdU and with 7-AAD (BD Biosciences, Franklin Lakes, N.J.) respectively. Flow cytometry was used to analyze the cell cycle parameters.
(§2) Apoptosis was assessed by determining the fraction of cells in the subG1 stage of the cell cycle. There were no differences in cell cycle parameters of RMS772 cells expressing TK domain mutants cultured in medium containing 10% FBS compared to vector or wild type FGFR4 (FIG. 9A).

[5] = tested on: RMS119 cells expressing FGFR4 N535K or V550E; experiment: as above; assay type: cell-based, mouse; conditions: 5 uM for 24 hours
Method: as §1, §2

[6] = tested on: RMS772 cells expressing vector only; experiment: Percent cell survival of transduced RMS772 cell lines with PD173074; assay type: cell-based; conditions: Mus musculus; RMS772 vector control, 48 hours of treatment
[7] = tested on: RMS772 cells expressing FGFR4 N535K (K535); experiment: as above; assay type: cell-based; conditions: Mus musculus; RMS772 K535, 48 hours of treatment
RH36 = experiment: IC50 of PD173074 for killing human RMS cell lines (RT-CES cell growth monitoring); assay type: cell-based; conditions: RH36 cell line
Method: (§3) Briefly human RMS cell lines were seeded in the 96 well plate device at 5000-20,000 cells per well. […] Cell growth was monitored and IC50 values were calculated by Cell Office® (ACEA Biosciences, San Diego, Calif.).
(§4) Expression level of FGFR4 mRNA for each cell line was determined by real-time PCR (FIG. 10).

RD = experiment: as above; assay type: cell-based; conditions: RD cell line
Method: as §3, §4

RH41 = experiment: as above; assay type: cell-based; conditions: RH41 cell line
Method: as §3, §4

RH30 = experiment: as above; assay type: cell-based; conditions: RH30 cell line
Method: as §3, §4

RH28 = experiment: as above; assay type: cell-based; conditions: RH28 cell line
Method: as §3, §4

[8] = tested on: RMS772 cells expressing FGFR4 N535K (K535) or V550E (E550); experiment: Activated caspase 3 positive cells in RMS772 transductants; assay type: cell-based, mouse; conditions: both mutant RMS772 cell lines, 20 μM, 24 hour treatment
[9] = 24 hours, read-out: IC50 for killing, 24 hours
[10] = 48 hours, read-out: IC50 for killing, 48 hours
[11] = 72 hours, read-out: IC50 for killing, 72 hours

How did the “reduction in growth after prolonged culture” value (RH30 TRB H11.5 cells) turn out when `C[C@H]1c2cccc(O)c2C(=O)C2=C(O)[C@]3(O)C(=O)C(C(N)=O)=C(O)[C@@H](N(C)C)[C@@H]3[C@@H](O)[C@@H]21` [dox, doxycycline] was run?
Its value is 41%.

For `Cc1ccc(NC(=O)c2ccc(CN3CCN(C)CC3)cc2)cc1Nc1nccc(-c2cccnc2)n1` [imatinib, 4-[(4-methylpiperazin-1-yl)methyl]-N-[4-methyl-3-[(4-pyridin-3-ylpyrimidin-2-yl)amino]-phenyl]-benzamide], which “sensitivity (relative cell number) of FGFR4 mutants versus wild type FGFR4 or control cells” value [1] is on record?
The value was “more sensitive”.

For `CCN(CC)CCCCNc1ncc2cc(-c3cc(OC)cc(OC)c3)c(NC(=O)NC(C)(C)C)nc2n1` [PD173074], which IC50 [2] is on record?
Its IC50 is 5.9 µM.

And the IC50 [3]?
Its IC50 is 11.8 µM.

What about the “apoptosis (SubG1 fraction) compared with cells transfected with vector or wild type FGFR4” value [4] of the same compound?
The value was “increase in apoptosis; also recorded: increased SubG1 fraction”.

And the “apoptosis / cell cycle effect of treatment” value [5]?
Its value is “not affected”.

And the IC50 [6]?
Its IC50 is 12.7 µM.

And the IC50 [7]?
The IC50 was 8.2 µM.

What about the IC50 (RH36; [9]) of the same compound?
Its IC50 is 25.9 µM.

What about the IC50 (RH36; [10]) of the same compound?
The IC50 was 17.6 µM.

And the IC50 (RH36; [11])?
Its IC50 is 20.2 µM.

And the IC50 (RD; [9])?
Its IC50 is 57.1 µM.

And the IC50 (RD; [10])?
The IC50 was 29.7 µM.

And the IC50 (RD; [11])?
The IC50 was 20.2 µM.

What about the IC50 (RH41; [9]) of the same compound?
The IC50 was 2.55 µM.

What about the IC50 (RH41; [10]) of the same compound?
The IC50 was 0.96 µM.

And the IC50 (RH41; [11])?
The IC50 was 0.76 µM.

What about the IC50 (RH30; [9]) of the same compound?
Its IC50 is 10 µM.

What about the IC50 (RH30; [10]) of the same compound?
The IC50 was 8.32 µM.

What about the IC50 (RH30; [11]) of the same compound?
The IC50 was 8.11 µM.

And the IC50 (RH28; [9])?
Its IC50 is 2.22 µM.

What about the IC50 (RH28; [10]) of the same compound?
Its IC50 is 0.66 µM.

And the IC50 (RH28; [11])?
Its IC50 is 0.5 µM.

What about the “activated caspase 3 (cells positive, normalized to vector only)” value [8] of the same compound?
Its value is “increased activated caspase 3”.
